Some test systems named below: SR leukemia; MDA-MB-435; UACC-62 melanoma; U251 CNS; ACHN renal; NCI-H23 lung; NCI-H226 lung; SK-OV-3 ovarian; SW-620 colon; MCF7 breast; KM12 colon; SNB-19 CNS; OVCAR-5 ovarian; RXF 393 renal; MOLT-4 leukemia; RPMI-8226 leukemia; HOP-92 NSCLC; BT-549 breast; MALME-3M melanoma; SNB-75 CNS.
What all share (experiment): NCI-60 cell line screen, 48 h

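These data come from cells grown in 96-well plates and exposed to compound for 48 hours at five concentrations. TGI denotes the concentration required for complete inhibition of growth.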

With `COc1ccc(C2=CC(c3ccccc3)n3nnnc3N2)cc1` (stereo not drawn), the TGI with SR leukemia, with MDA-MB-435, with UACC-62 melanoma, with U251 CNS, in the experiment with ACHN renal and in the experiment on NCI-H23 lung was greater than 100 µM throughout. For the same compound, the TGI with NCI-H226 lung, in the experiment on SK-OV-3 ovarian, with SW-620 colon, in the experiment with MCF7 breast, in the experiment on KM12 colon and in the experiment on SNB-19 CNS was greater than 100 µM throughout. The TGI in the experiment on OVCAR-5 ovarian, in the experiment with RXF 393 renal, in the experiment with MOLT-4 leukemia and with RPMI-8226 leukemia was greater than 100 µM each time.

In the case of `COc1cc(C2SCC(=O)N2c2cc(Cl)c(Cl)cc2Cl)cc(OC)c1OC` (stereo not drawn), the TGI in the experiment on SR leukemia is 84.3 µM; in the experiment on MDA-MB-435, greater than 100 µM; in the experiment on UACC-62 melanoma, 97.6 µM; with U251 CNS, greater than 100 µM; in the experiment with ACHN renal it was greater than 100 µM; with NCI-H23 lung, greater than 100 µM. Further, the TGI was greater than 100 µM in the experiment with NCI-H226 lung; greater than 100 µM in the experiment on HOP-92 NSCLC; greater than 100 µM in the experiment on SK-OV-3 ovarian; 64.7 µM in the experiment with BT-549 breast; greater than 100 µM in the experiment on SW-620 colon; greater than 100 µM with MCF7 breast. The TGI with KM12 colon is greater than 100 µM; with SNB-19 CNS, greater than 100 µM; with OVCAR-5 ovarian it was greater than 100 µM; in the experiment on MOLT-4 leukemia it was greater than 100 µM; in the experiment with RPMI-8226 leukemia it was 89.7 µM.

Turning to `C=CCn1c(=O)c2ccccc2[n+]2c(C)c(C(=O)OCC)sc12`, the TGI in the experiment on SR leukemia, in the experiment with MDA-MB-435, in the experiment with UACC-62 melanoma, with U251 CNS, in the experiment on ACHN renal and in the experiment with NCI-H23 lung was greater than 100 µM each time. The TGI in the experiment on NCI-H226 lung, with SK-OV-3 ovarian, with BT-549 breast, in the experiment with SW-620 colon, in the experiment with MCF7 breast and in the experiment on KM12 colon was greater than 100 µM in each case. Also, the TGI with SNB-19 CNS, in the experiment on OVCAR-5 ovarian, in the experiment on RXF 393 renal, in the experiment with MOLT-4 leukemia and with RPMI-8226 leukemia was greater than 100 µM throughout.

In the case of `COc1cc(C=O)ccc1Oc1nnnn1-c1ccccc1`, the TGI in the experiment on SR leukemia is 51.1 µM; in the experiment on MDA-MB-435, greater than 100 µM; with U251 CNS, greater than 100 µM; in the experiment on MALME-3M melanoma, greater than 100 µM; in the experiment with NCI-H23 lung, greater than 100 µM; in the experiment on SNB-75 CNS it was greater than 100 µM. The TGI in the experiment with NCI-H226 lung was 56.7 µM; with HOP-92 NSCLC, greater than 100 µM; with SK-OV-3 ovarian, greater than 100 µM; in the experiment on BT-549 breast, greater than 100 µM; in the experiment on SW-620 colon it was greater than 100 µM; in the experiment on KM12 colon, greater than 100 µM. The TGI in the experiment with SNB-19 CNS is greater than 100 µM; with OVCAR-5 ovarian it was greater than 100 µM; with RXF 393 renal it was greater than 100 µM; with MOLT-4 leukemia, 75.1 µM; with RPMI-8226 leukemia, 98.2 µM.

Turning to `CC(=O)[C@@H]1[C@@H](OC(=O)CCC(C)COC2OC(CO)C(O)C(O)C2O)C[C@H]2[C@@H]3CC=C4C[C@@H](OC5OC(CO)C(OC6OC(C)C(O)C(O)C6O)C(O)C5OC5OC(C)C(O)C(O)C5O)CC[C@]4(C)[C@H]3CC[C@]12C` (stereo partly drawn), the TGI in the experiment on SR leukemia, in the experiment with MDA-MB-435, with UACC-62 melanoma, in the experiment on U251 CNS, in the experiment on MALME-3M melanoma and with ACHN renal was greater than 100 µM throughout. Also, the TGI with NCI-H23 lung, in the experiment with SNB-75 CNS, in the experiment with SK-OV-3 ovarian, with BT-549 breast, with SW-620 colon and in the experiment on MCF7 breast was greater than 100 µM in each case. For the same compound, the TGI in the experiment on KM12 colon, in the experiment on SNB-19 CNS, in the experiment on OVCAR-5 ovarian, in the experiment with RXF 393 renal, in the experiment on MOLT-4 leukemia and in the experiment with RPMI-8226 leukemia was greater than 100 µM in each case.

For `CC(C)(C)c1cc(CC2C(=O)c3ccccc3C2=O)cc(C(C)(C)C)c1O`, the TGI was 16.6 µM in the experiment on SR leukemia; 20 µM in the experiment on MDA-MB-435; 17.7 µM with UACC-62 melanoma; 13.2 µM in the experiment with U251 CNS; greater than 100 µM in the experiment with ACHN renal; greater than 100 µM in the experiment with NCI-H23 lung. Moreover, the TGI with HOP-92 NSCLC is 1.07 µM; with SK-OV-3 ovarian, 7.71 µM; in the experiment on BT-549 breast, 18.1 µM; with SW-620 colon, 17.1 µM; with MCF7 breast, greater than 100 µM; in the experiment on KM12 colon, 19.1 µM. In addition, the TGI was 12 µM in the experiment on SNB-19 CNS, 57.6 µM with OVCAR-5 ovarian, 9.56 µM with MOLT-4 leukemia and 3.34 µM in the experiment with RPMI-8226 leukemia.

Consider `CCOC(=O)c1ccc(Nc2cnc3cc(C(F)(F)F)ccc3n2)cc1`, for which the TGI in the experiment with SR leukemia, with MDA-MB-435, in the experiment on UACC-62 melanoma, in the experiment with U251 CNS, in the experiment with MALME-3M melanoma and with ACHN renal was greater than 100 µM in each case. The TGI with NCI-H23 lung, in the experiment on SNB-75 CNS, in the experiment on NCI-H226 lung, with HOP-92 NSCLC, in the experiment with SK-OV-3 ovarian and in the experiment on BT-549 breast was greater than 100 µM each time. Besides, the TGI in the experiment on SW-620 colon, in the experiment on KM12 colon, in the experiment with OVCAR-5 ovarian, with MOLT-4 leukemia and with RPMI-8226 leukemia was greater than 100 µM throughout.

Turning to `COC(=O)c1c2c(cc3c1CC1(Cc4cc5c(c(C=O)c4C1)CCCC5)C3)CCCC2` (stereo not drawn), the TGI in the experiment on SR leukemia, in the experiment on MDA-MB-435, in the experiment with UACC-62 melanoma, with U251 CNS, in the experiment on MALME-3M melanoma and in the experiment with ACHN renal was greater than 100 µM each time. The TGI in the experiment with NCI-H23 lung is greater than 100 µM; in the experiment on NCI-H226 lung it was greater than 100 µM; in the experiment on HOP-92 NSCLC, greater than 100 µM; in the experiment with SK-OV-3 ovarian it was greater than 100 µM; with MCF7 breast, 87.2 µM; with OVCAR-5 ovarian it was greater than 100 µM. Besides, the TGI in the experiment on RXF 393 renal, in the experiment on MOLT-4 leukemia and in the experiment with RPMI-8226 leukemia was greater than 100 µM in each case.

Values taken from PubChem BioAssay (NCI).
